Reference: ChEMBL document CHEMBL1201862, “PubChem BioAssay data set” (2004)
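Tested at 5 concentrations; 48 h exposure; 96-well plates; endpoints linearly interpolated, else capped at highest concentration. Here, GI50 denotes the concentration required for 50% inhibition of growth.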 Active and inactive are the calls of the source. Cut-off read from the data, not from the text of the source: active = GI50 up to about 1.1 µM and inactive = higher.

Legend:
Assay in all cases: DTP human tumour cell line panel, 48 h
DU-145 = system: DU-145
OVCAR-8 = system: OVCAR-8
UO-31 = system: UO-31
SW-620 = system: SW-620
HCT-15 = system: HCT-15
COLO 205 = system: COLO 205
HOP-62 = system: HOP-62
RXF 393 = system: RXF 393
HL-60 = system: HL-60
SK-MEL-28 = system: SK-MEL-28
HCT-116 = system: HCT-116
Malme-3M = system: Malme-3M
Hs-578T = system: Hs-578T
CAKI-1 = system: CAKI-1
HT-29 = system: HT-29
NCI-H23 = system: NCI-H23
BT-549 = system: BT-549
SNB-75 = system: SNB-75
SF-295 = system: SF-295
SR = system: SR

Structure (SMILES)	GI50 (DU-145)	GI50 (OVCAR-8)	GI50 (UO-31)	GI50 (SW-620)	GI50 (HCT-15) [µM]	GI50 (COLO 205)	GI50 (HOP-62)	GI50 (RXF 393)	GI50 (HL-60)	GI50 (SK-MEL-28)	GI50 (HCT-116)	GI50 (Malme-3M)	GI50 (Hs-578T)	GI50 (CAKI-1)	GI50 (HT-29)	GI50 (NCI-H23)	GI50 (BT-549)	GI50 (SNB-75)	GI50 (SF-295)	GI50 (SR)
C=C(NC(=O)C(=C)NC(=O)c1csc(C2=NC3c4csc(n4)C4NC(=O)c5csc(n5)C(C(C)(O)C(C)O)NC(=O)C5CSC(=N5)/C(=C/C)NC(=O)C(C(C)O)NC(=O)c5csc(n5)C3(CC2)NC(=O)C(C)NC(=O)C(=C)NC(=O)C(=C)NC(=O)C(C(C)C)NC2C=Cc3c(C(C)O)cc(nc3C2O)C(=O)OC4C)n1)C(N)=O (centres undefined)	20.9 µM (inactive)	0.935 µM (active)	60.5 µM (inactive)	0.673 µM (active)	9.25	0.468 µM (active)	19.6 µM (inactive)	0.708 µM (active)	2.24 µM (inactive)	1.38 µM (inactive)	0.312 µM (active)	0.239 µM (active)	12.3 µM (inactive)	3.69 µM (inactive)	1.32 µM (inactive)	7.13 µM (inactive)	2.37 µM (inactive)	> 30.2 µM (inactive)	26 µM (inactive)	
CN(C)CCN1C(=O)c2ccccc2C1(O)c1ccc(Cl)cc1 (centres undefined)	> 100 µM (inactive)	> 100 µM (inactive)	24.3 µM (inactive)	> 100 µM (inactive)	> 100	> 100 µM (inactive)	> 100 µM (inactive)	15.7 µM (inactive)	26.4 µM (inactive)	37.8 µM (inactive)	63.5 µM (inactive)	28.6 µM (inactive)	74 µM (inactive)	40.8 µM (inactive)	42.7 µM (inactive)	> 100 µM (inactive)	> 100 µM (inactive)	83.4 µM (inactive)	> 100 µM (inactive)	
CCOC(=O)NNC(=O)NCCCCNC(=O)NNC(=O)OCC	> 100 µM (inactive)	> 100 µM (inactive)	> 100 µM (inactive)	> 100 µM (inactive)	> 100	> 100 µM (inactive)	> 100 µM (inactive)	> 100 µM (inactive)	> 100 µM (inactive)	> 100 µM (inactive)	> 100 µM (inactive)		> 100 µM (inactive)	> 100 µM (inactive)	> 100 µM (inactive)	> 100 µM (inactive)	> 100 µM (inactive)	0.458 µM (active)	> 100 µM (inactive)	
Oc1cccc(-c2ccc3c4c2O[C@H]2c5[nH]c6ccccc6c5C[C@@]5(O)[C@@H](C3)N(CC3CC3)CC[C@]425)c1	1.87 µM (inactive)	1.83 µM (inactive)	1.67 µM (inactive)	1.88 µM (inactive)	1.67	2.44 µM (inactive)		1.35 µM (inactive)	1.65 µM (inactive)		1.82 µM (inactive)	1.86 µM (inactive)	1.74 µM (inactive)	1.75 µM (inactive)	1.7 µM (inactive)	2.3 µM (inactive)	10 µM (inactive)		1.82 µM (inactive)	
c1ccc2c(c1)CCCN1CCc3ccccc3C21 (centres undefined)	> 100 µM (inactive)	> 100 µM (inactive)	30.3 µM (inactive)	35.5 µM (inactive)	> 100	46.7 µM (inactive)	50 µM (inactive)		47.1 µM (inactive)	31.4 µM (inactive)	38.5 µM (inactive)	> 100 µM (inactive)	> 100 µM (inactive)	93.5 µM (inactive)	29 µM (inactive)	48.4 µM (inactive)	60.1 µM (inactive)	98.2 µM (inactive)	40.2 µM (inactive)	58.7 µM (inactive)
O=c1n(-c2ccccc2)c(=O)n2n1C1C=CC2CCCCCC1	> 100 µM (inactive)	> 100 µM (inactive)	> 100 µM (inactive)	> 100 µM (inactive)	> 100	> 100 µM (inactive)	> 100 µM (inactive)		29.4 µM (inactive)	> 100 µM (inactive)	> 100 µM (inactive)	> 100 µM (inactive)	36.1 µM (inactive)	> 100 µM (inactive)	> 100 µM (inactive)	> 100 µM (inactive)	97.3 µM (inactive)	> 100 µM (inactive)	> 100 µM (inactive)	> 100 µM (inactive)
CC1=C(C(=O)NNC(=O)C(N)=O)CC(C(=O)NNC(=O)C(N)=O)=C(C)N1	> 100 µM (inactive)	> 100 µM (inactive)	> 100 µM (inactive)	> 100 µM (inactive)	> 100	> 100 µM (inactive)	> 100 µM (inactive)	> 100 µM (inactive)	47.4 µM (inactive)	> 100 µM (inactive)	> 100 µM (inactive)		> 100 µM (inactive)	> 100 µM (inactive)	> 100 µM (inactive)	> 100 µM (inactive)	> 100 µM (inactive)	> 100 µM (inactive)	> 100 µM (inactive)	> 100 µM (inactive)
CCCCn1c(-c2ccc([N+](=O)[O-])cc2)cs/c1=N/N=C1\C(=O)Nc2ccc(Br)cc21	13.8 µM (inactive)	30 µM (inactive)	18.6 µM (inactive)	39.6 µM (inactive)	21.9	13.6 µM (inactive)	15.7 µM (inactive)	8 µM (inactive)	16.9 µM (inactive)	29.4 µM (inactive)	12.9 µM (inactive)	28.3 µM (inactive)	43.2 µM (inactive)	21.4 µM (inactive)	13.3 µM (inactive)	16.6 µM (inactive)	22.6 µM (inactive)	20.3 µM (inactive)	22.9 µM (inactive)	
Cc1cccc(NC(=O)/C=C/c2ccccc2)c1C	> 100 µM (inactive)	> 100 µM (inactive)		> 100 µM (inactive)	> 100	> 100 µM (inactive)	85.9 µM (inactive)		> 100 µM (inactive)	> 100 µM (inactive)	> 100 µM (inactive)	> 100 µM (inactive)	37.7 µM (inactive)	> 100 µM (inactive)	> 100 µM (inactive)	> 100 µM (inactive)	> 100 µM (inactive)	77.6 µM (inactive)	> 100 µM (inactive)	> 100 µM (inactive)
ClC1=NN=C(c2c[nH]c3ccccc23)CC1NCc1ccccc1 (centres undefined)	> 100 µM (inactive)	> 100 µM (inactive)	> 100 µM (inactive)	> 100 µM (inactive)	> 100	> 100 µM (inactive)	> 100 µM (inactive)	> 100 µM (inactive)	> 100 µM (inactive)	> 100 µM (inactive)	> 100 µM (inactive)	> 100 µM (inactive)	> 100 µM (inactive)	> 100 µM (inactive)	> 100 µM (inactive)	> 100 µM (inactive)	> 100 µM (inactive)	> 100 µM (inactive)	> 100 µM (inactive)	
CS(=O)(=O)c1nc(-c2cc3c(c(S(C)(=O)=O)n2)CCC3)cc2c1CCCCC2	> 100 µM (inactive)	66.5 µM (inactive)	0.834 µM (active)	> 100 µM (inactive)	> 100	> 100 µM (inactive)	16.9 µM (inactive)	18.5 µM (inactive)	> 100 µM (inactive)	> 100 µM (inactive)	> 100 µM (inactive)	34.5 µM (inactive)	9.08 µM (inactive)	21 µM (inactive)	> 100 µM (inactive)	41.4 µM (inactive)	20.5 µM (inactive)	6.37 µM (inactive)	31.7 µM (inactive)	
O=C(c1cccc(OCc2ccccc2)c1OCc1ccccc1)N1CCSC1=S	28.1 µM (inactive)	21.8 µM (inactive)	10.6 µM (inactive)	43.4 µM (inactive)	23.2	12 µM (inactive)	27.2 µM (inactive)		5.92 µM (inactive)	48.5 µM (inactive)	21.4 µM (inactive)	23.6 µM (inactive)	2.29 µM (inactive)	31 µM (inactive)	25.2 µM (inactive)	19.1 µM (inactive)	29.5 µM (inactive)	5.64 µM (inactive)	30 µM (inactive)	8.36 µM (inactive)
NC(=O)N/N=C1\CC2C3CC4C2C4C13 (centres undefined)	> 100 µM (inactive)	> 100 µM (inactive)	> 100 µM (inactive)	> 100 µM (inactive)	> 100	> 100 µM (inactive)	> 100 µM (inactive)		> 100 µM (inactive)	> 100 µM (inactive)	> 100 µM (inactive)	> 100 µM (inactive)	> 100 µM (inactive)	> 100 µM (inactive)	> 100 µM (inactive)	> 100 µM (inactive)	> 100 µM (inactive)	> 100 µM (inactive)	> 100 µM (inactive)	> 100 µM (inactive)
Cc1ccc2c(c1C)CC1(Cc3c(ccc4c3CCC4)C1=O)C2=O (centres undefined)	> 100 µM (inactive)	> 100 µM (inactive)	> 100 µM (inactive)	> 100 µM (inactive)	> 100	> 100 µM (inactive)		> 100 µM (inactive)	> 100 µM (inactive)	> 100 µM (inactive)	> 100 µM (inactive)	> 100 µM (inactive)	> 100 µM (inactive)	> 100 µM (inactive)	> 100 µM (inactive)	> 100 µM (inactive)	> 100 µM (inactive)	51.6 µM (inactive)	> 100 µM (inactive)	
O=C1/C(=C/c2cccc([N+](=O)[O-])c2)CCCc2ccccc21	15 µM (inactive)	12.7 µM (inactive)	16.4 µM (inactive)	4.76 µM (inactive)	10.6	18.8 µM (inactive)	15.6 µM (inactive)		4.94 µM (inactive)	15.3 µM (inactive)	5.4 µM (inactive)	10.3 µM (inactive)	3.94 µM (inactive)	16.5 µM (inactive)	9.84 µM (inactive)	15.8 µM (inactive)	12.5 µM (inactive)	15.1 µM (inactive)	14.6 µM (inactive)	2.86 µM (inactive)
